Values joined by “and” are separate entries in the source; they are usually repeats but may differ in a detail not shown here. Identical values can stand only once.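 Five concentrations, 48 hours, 96-well plates. GI50 marks 50% less growth. TGI is the concentration that stops growth completely.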
Tests used:
Test in all cases: growth of human tumour cells (NCI), 48 h
[1] = system: MALME-3M melanoma
[2] = system: ACHN renal
[3] = system: SK-MEL-28 melanoma
[4] = system: MCF7 breast
[5] = system: HOP-62 NSCLC
[6] = system: SK-OV-3 ovarian
[7] = system: UACC-62 melanoma
[8] = system: CCRF-CEM leukemia
[9] = system: SN12C renal
[10] = system: HT29 colon

SMILES	GI50 [1]	TGI [1]	GI50 [2]	TGI [2]	GI50 [3]	TGI [3]	GI50 [4]	TGI [4]	GI50 [5]	TGI [5]	GI50 [6]	TGI [6]	GI50 [7]	TGI [7]	GI50 [8]	TGI [8]	GI50 [9]	TGI [9]	GI50 [10]	TGI [10]
COc1ccc(/C=C\c2cc(OC)c(OC)c(OC)c2)c(NS(=O)(=O)c2ccc(C)cc2)c1O	16.8 µM	> 100 µM	0.0874 µM	> 59.9 µM	0.602 µM	> 96.2 µM	0.0333 µM	> 39.2 µM	1.29 µM	> 100 µM	0.685 µM	> 100 µM	0.0428 µM	> 100 µM	0.0407 µM	> 100 µM	0.0736 µM	> 76.2 µM	0.813 µM	> 45.7 µM
COc1ccc(NC(=O)c2cc(OC)c(OC)c(OC)c2)cc1O	29.4 µM	> 100 µM	13.6 µM	> 100 µM	28.1 µM	> 100 µM	2.58 µM	> 100 µM	5.36 µM	> 100 µM	4.95 µM	> 100 µM	2.66 µM	> 100 µM	4.13 µM	> 100 µM	7.99 µM	> 100 µM	3.21 µM	11.6 µM
FC(F)(F)c1ccc(-c2cnc(Br)nc2NC2CCCCCC2)cc1	> 100 µM	> 100 µM	> 100 µM	> 100 µM	> 100 µM	> 100 µM	19.7 µM	> 100 µM	> 100 µM	> 100 µM	> 100 µM	> 100 µM	42.6 µM	> 100 µM	84.7 µM	> 100 µM	> 100 µM	> 100 µM	71.4 µM	> 100 µM
O=C(/C=C\c1ccnc2ccccc12)c1ccc([N+](=O)[O-])cc1	57.2 µM	> 100 µM	14.6 µM	> 100 µM	20.5 µM	> 83.2 µM	1.64 µM	3.54 µM	> 38.4 µM	> 80.1 µM	> 100 µM	> 100 µM	12.5 µM	> 86.3 µM	3.41 µM	> 48.1 µM	16.1 µM	> 64.2 µM	2.36 µM	5.37 µM
CC#CC(=O)N1CCC[C@H]1c1nc(-c2ccc(C(=O)Nc3ccccn3)cc2)c2c(N)nccn12	36.2 µM	> 100 µM	23.8 µM	> 100 µM	47.3 µM	> 100 µM	58 µM	> 100 µM	> 100 µM	> 100 µM	2.25 µM	> 100 µM	34.8 µM	> 100 µM	> 82.1 µM	> 100 µM	47.6 µM	> 100 µM	55.1 µM	> 100 µM
CC(C)C(N)(C(=O)O)c1ccccc1 (configuration not stated)		> 100 µM		> 100 µM		> 100 µM		> 100 µM		> 100 µM		> 100 µM		> 100 µM		> 100 µM		> 100 µM		> 100 µM
Cc1nc(NC(=O)N2CCC[C@H]2C(N)=O)sc1-c1ccnc(C(C)(C)C(F)(F)F)c1	1.8 µM and > 10 µM	22.4 µM and > 10 µM	5.6 µM and > 10 µM	> 100 µM	4.72 µM and 6.71 µM	> 61.6 µM	0.12 µM and 0.296 µM	> 38.4 µM	8.06 µM and > 10 µM	> 75.1 µM	0.134 µM and 0.262 µM	5.98 µM and 6.37 µM	3.18 µM and 3.05 µM	18.7 µM and > 10 µM	5.13 µM and 5.71 µM	75.4 µM and > 10 µM	6.43 µM and > 10 µM	> 100 µM	0.488 µM and 0.477 µM	20.8 µM and > 10 µM
C[C@@H]1CC[C@@]2(OC1)O[C@H]1C[C@H]3[C@@H]4CC=C5C[C@@H](O[C@@H]6O[C@H](CO)[C@@H](O[C@@H]7O[C@@H](CO)[C@H](O)[C@H]7O)[C@H](O)[C@H]6O[C@@H]6O[C@@H](C)[C@H](O)[C@@H](O)[C@H]6O)CC[C@]5(C)[C@H]4CC[C@]3(C)[C@H]1[C@@H]2C	0.681 µM	2 µM		2.12 µM	1.2 µM	2.44 µM	1.8 µM	3.3 µM	1.09 µM	2.4 µM	1.62 µM	3.04 µM	0.909 µM	2.11 µM	1.1 µM	2.6 µM	0.481 µM	1.65 µM	1.06 µM	2.46 µM
COc1ccccc1-n1c(SCc2cc(OC)c(OC)c(OC)c2)nc2ccc(Cl)cc2c1=O	8.76 µM	> 100 µM	7.07 µM	> 100 µM	5.76 µM	> 100 µM	0.915 µM	> 100 µM	9.4 µM	> 100 µM	7.76 µM	> 100 µM	3.04 µM	> 100 µM	3.07 µM	> 100 µM	7.81 µM	> 100 µM	2.91 µM	> 100 µM
COc1ccc(C(O)c2cc3c(N)c(C(=O)Nc4cccc(Br)c4)sc3nc2C)cc1 (configuration not stated)	0.799 µM	> 52.7 µM	0.23 µM	> 46.2 µM	22.3 µM	> 100 µM	0.125 µM	> 58.4 µM	0.207 µM	> 42.2 µM	0.197 µM	> 65.1 µM	0.309 µM	> 38.6 µM	0.121 µM	> 100 µM	0.21 µM	> 31.9 µM	0.109 µM	
CN(Cc1cnc2nc(N)nc(N)c2n1)c1ccc(C(=O)NC(CCC(=O)O)C(=O)O)cc1 (configuration not stated)	43 µM	> 100 µM	0.292 µM	> 100 µM	21 µM	> 100 µM		> 100 µM	0.394 µM	> 100 µM	6.04 µM	> 100 µM	0.145 µM	> 100 µM	0.056 µM	> 100 µM	0.0595 µM	> 100 µM	0.0564 µM	> 100 µM
COC(=O)CCC1=C(C)c2cc3[n-]c(cc4nc(cc5[n-]c(cc1n2)c(CCC(=O)OC)c5C)C=C4C)cc3C.[Cd+2]	2.55 µM	7.58 µM	16.2 µM	38.8 µM	4.69 µM	21.2 µM	2.66 µM	11.9 µM	25.4 µM	76.2 µM	7.4 µM	27.7 µM	2 µM	5.19 µM	3.34 µM	> 56.4 µM	19.1 µM	58 µM	6.74 µM	26.3 µM
